# According to patent publication US8008299B2, “Urotensin II receptor antagonists” (Janssen Pharmaceutica, N.V., priority 2007, dated 2011):
# Where two headings read alike, the source gives them in different places.
# Assays:
# [1] = molecular target: T1, rU-II (Rattus norvegicus, UniProt P49684); conditions: cited from earlier work
# T1 sequence (P49684 1-386): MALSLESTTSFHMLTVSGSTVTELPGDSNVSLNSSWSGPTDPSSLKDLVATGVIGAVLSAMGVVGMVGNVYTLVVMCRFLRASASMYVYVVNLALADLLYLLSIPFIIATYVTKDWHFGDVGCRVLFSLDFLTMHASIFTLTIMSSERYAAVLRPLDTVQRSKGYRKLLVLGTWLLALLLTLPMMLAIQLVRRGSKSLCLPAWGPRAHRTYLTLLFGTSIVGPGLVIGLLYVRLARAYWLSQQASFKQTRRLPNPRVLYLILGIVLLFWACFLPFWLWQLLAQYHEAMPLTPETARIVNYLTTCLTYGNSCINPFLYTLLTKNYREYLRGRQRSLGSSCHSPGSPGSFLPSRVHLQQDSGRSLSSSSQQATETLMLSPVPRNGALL
# [2] = molecular target: T2, rat GPR14 (U-II receptor) (Rattus norvegicus, UniProt P49684); conditions: agonist activity of the cyclic peptide used as agonist; read-out: FLIPR EC50; cited from earlier work
# T2 construct: expressed in transfected cells
# T2 sequence (P49684 1-386): T1 sequence (P49684 1-386)
# [3] = molecular target: T2, rat GPR14 (U-II receptor); assay: Rat UII Calcium Mobilization FLIPR Assay; format: cell-based; conditions: CHO cells transfected with rat GPR14; antagonist activity after 5 min incubation vs agonist (Ac)-CFWK(2-NaI)C-NH2 at 1 nM
# How it was run: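 Fluorescent calcium signals were recorded at room temperature (23° C) by FLIPR. Stable rat U-II receptor CHO lines had been dye-loaded for 1 h at 37° C in pH 7.4 HBSS containing 20 mM HEPES, 0.1% BSA and 2.5 mM probenecid.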
# [4] = molecular target: T3, Human UII (U-II receptor) in 6D9 human rhabdomyosarcoma cells (Homo sapiens, UniProt Q9UKP6); assay: Human UII Calcium Mobilization Assay; format: cell-based
# T3 construct: 6D9: isolated by dilution subcloning of RMS13 cells, ATCC® Number: CRL-2061; host or cells: 6D9 human rhabdomyosarcoma cells (subclone of RMS13)
# T3 sequence (Q9UKP6 1-389): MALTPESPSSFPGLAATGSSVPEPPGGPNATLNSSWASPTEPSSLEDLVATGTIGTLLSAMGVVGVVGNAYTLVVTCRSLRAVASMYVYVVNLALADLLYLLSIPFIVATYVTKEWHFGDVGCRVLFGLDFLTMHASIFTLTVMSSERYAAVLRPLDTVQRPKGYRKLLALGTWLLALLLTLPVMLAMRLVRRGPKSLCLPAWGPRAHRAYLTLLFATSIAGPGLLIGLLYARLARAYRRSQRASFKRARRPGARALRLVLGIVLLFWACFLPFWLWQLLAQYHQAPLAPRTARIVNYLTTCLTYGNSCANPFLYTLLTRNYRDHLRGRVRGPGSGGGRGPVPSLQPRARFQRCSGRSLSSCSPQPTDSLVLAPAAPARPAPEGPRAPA
# [5] = molecular target: T4, UT receptors in HSMM (Human Skeletal Muscle Myoblasts) (Homo sapiens, UniProt Q9UKP6); assay: Human Radioligand Binding Assay ((^125I)-U-II binding to intact HSMM)
# T4 sequence (Q9UKP6 1-389): T3 sequence (Q9UKP6 1-389)
# [6] = 6D9 human rhabdomyosarcoma cells, FLIPR TETRA, average, read-out: Human UII Ca+ Mobilization Average IC50
# [7] = read-out: Human UII Average Binding Ki, intact HSMM, 0.150 nM (^125I)-U-II, 3 h, 25° C.
Compound,Ki [1],EC50 [2],IC50 [3],"IC50 [4, 6]",Ki [5],IC50 [4],"Ki [5, 7]"
(Ac)-CFWK(2-NaI)C—NH2,0.12 ± 0.05 nM,0.54 ± 0.2 nM,,,,,
"CCN1CCN(c2cccc3c2CN([C@H](CCCSc2cccc[n+]2[O-])c2ccc(OC)c(OC)c2)C3=O)CC1 [Cpd 31, {(4R)-4-(3,4-dimethoxy-phenyl)-4-[4-(4-ethyl-piperazin-1-yl)-1-oxo-1,3-dihydro-isoindol-2-yl]-butylsulfanyl}-pyridine 1-oxide]",,,11 nM,602 nM,135 nM,,
"CCN1CCN(c2cccc3c2CN([C@H](CCCNc2cccc[n+]2[O-])c2ccc(OC)c(OC)c2)C3=O)CC1 [Cpd 93, 2-[(1R)-1-(3,4-dimethoxy-phenyl)-4-(1-oxy-pyridin-2-ylamino)-butyl]-4-(4-ethyl-piperazin-1-yl)-2,3-dihydro-isoindol-1-one]",,,82 nM,555 nM,125 nM,,
"CCN1CCN(c2cccc3c2CN([C@H](CCCNS(=O)(=O)c2cn(C)cn2)c2ccc(OC)c(OC)c2)C3=O)CC1 [Cpd 53, 1-methyl-1H-imidazole-4-sulfonic acid {(4R)-4-(3,4-dimethoxy-phenyl)-4-[4-(4-ethyl-piperazin-1-yl)-1-oxo-1,3-dihydro-isoindol-2-yl]-butyl}-amide]",,,53 nM,278 nM,56 nM,,
"CCN1CCN(c2cccc3c2CN([C@H](CCCSc2nc(C)cc(C)n2)c2ccc(OC)c(OC)c2)C3=O)CC1 [Cpd 27, 2-[(1R)-1-(3,4-dimethoxy-phenyl)-4-(4,6-dimethyl-pyrimidin-2-ylsulfanyl)-butyl]-4-(4-ethyl-piperazin-1-yl)-2,3-dihydro-isoindol-1-one]",,,3 nM,106 nM,19 nM,,
"CCN1CCN(c2cccc3c2CN([C@H](CCCNc2nccc(Cl)n2)c2ccc(OC)c(OC)c2)C3=O)CC1 [Cpd 11, 2-[(1R)-4-(4-chloro-pyrimidin-2-ylamino)-1-(3,4-dimethoxy-phenyl)-butyl]-4-(4-ethyl-piperazin-1-yl)-2,3-dihydro-isoindol-1-one]",,,1 nM,496 nM,62 nM,,
"CCN1CCN(c2cccc3c2CN([C@H](CCCNCc2ccc(F)cc2)c2ccc(OC)c(OC)c2)C3=O)CC1 [Cpd 91, 2-[(1R)-1-(3,4-dimethoxy-phenyl)-4-(4-fluoro-benzylamino)-butyl]-4-(4-ethyl-piperazin-1-yl)-2,3-dihydro-isoindol-1-one]",,,3 nM,106 nM,62 nM,,
"COc1ccc([C@@H](CCCN(C)c2ccccc2)N2Cc3c(cccc3N3CCNCC3)C2=O)cc1OC [Cpd 33, 2-[(1R)-1-(3,4-dimethoxy-phenyl)-4-(methyl-phenyl-amino)-butyl]-4-piperazin-1-yl-2,3-dihydro-isoindol-1-one]",,,307 nM,4680 nM,520 nM,,
"COc1ccc([C@@H](CCCN(C)S(=O)(=O)c2cccs2)N2Cc3c(cccc3N3CCN(C4CC4)CC3)C2=O)cc1OC [Cpd 7, thiophene-2-sulfonic acid [(4R)-4-[4-(4-cyclopropyl-piperazin-1-yl)-1-oxo-1,3-dihydro-isoindol-2-yl]-4-(3,4-dimethoxy-phenyl)-butyl]-methyl-amide]",,,13 nM,,,1170 nM,59 nM
"CCN1CCN(c2cccc3c2CN([C@H](CCCOCc2ccccc2F)c2ccc(OC)c(OC)c2)C3=O)CC1 [Cpd 51, 2-[(1R)-1-(3,4-dimethoxy-phenyl)-4-(2-fluoro-benzyloxy)-butyl]-4-(4-ethyl-piperazin-1-yl)-2,3-dihydro-isoindol-1-one]",,,2550 nM,> 10000 nM,> 300 nM,,
"CCN1CCN(c2cccc3c2CN([C@H](CCCNc2nccc(C)n2)c2ccc(OC)c(OC)c2)C3=O)CC1 [Cpd 23, 2-[(1R)-1-(3,4-dimethoxy-phenyl)-4-(4-methyl-pyrimidin-2-ylamino)-butyl]-4-(4-ethyl-piperazin-1-yl)-2,3-dihydro-isoindol-1-one]",,,19 nM,316 nM,13 nM,,
"CCN1CCN(c2cccc3c2CN([C@H](CCCNc2ccccc2)c2ccc(OC)c(OC)c2)C3=O)CC1 [Cpd 40, 2-[(1R)-1-(3,4-dimethoxy-phenyl)-4-phenylamino-butyl]-4-(4-ethyl-piperazin-1-yl)-2,3-dihydro-isoindol-1-one]",,,10 nM,370 nM,75 nM,,
"CCN1CCN(c2cccc3c2CN([C@H](CCCNc2ccccn2)c2ccc(OC)c(OC)c2)C3=O)CC1 [Cpd 92, 2-[(1R)-1-(3,4-dimethoxy-phenyl)-4-(pyridin-2-ylamino)-butyl]-4-(4-ethyl-piperazin-1-yl)-2,3-dihydro-isoindol-1-one]",,,74 nM,911 nM,60 nM,,
"CCN1CCN(c2cccc3c2CN([C@H](CCCNC(=O)c2c(C)n[nH]c2C)c2ccc(OC)c(OC)c2)C3=O)CC1 [Cpd 60, 3,5-dimethyl-1H-pyrazole-4-carboxylic acid {(4R)-4-(3,4-dimethoxy-phenyl)-4-[4-(4-ethyl-piperazin-1-yl)-1-oxo-1,3-dihydro-isoindol-2-yl]-butyl}-amide]",,,16 nM,130 nM,,,11 nM
"CCN1CCN(c2cccc3c2CN([C@H](CCCN(Cc2ccccc2)C(C)C)c2ccc(OC)c(OC)c2)C3=O)CC1 [Cpd 96, 2-[(1R)-4-(benzyl-isopropyl-amino)-1-(3,4-dimethoxy-phenyl)-butyl]-4-(4-ethyl-piperazin-1-yl)-2,3-dihydro-isoindol-1-one]",,,15 nM,152 nM,69 nM,,
"CCN1CCN(c2cccc3c2CN([C@H](CCCNS(=O)(=O)c2cccs2)c2ccc(OC)c(OC)c2)C3=O)CC1 [Cpd 84, thiophene-2-sulfonic acid {(4R)-4-(3,4-dimethoxy-phenyl)-4-[4-(4-ethyl-piperazin-1-yl)-1-oxo-1,3-dihydro-isoindol-2-yl]-butyl}-amide]",,,1 nM,8 nM,,,4 nM
"CCN1CCN(c2cccc3c2CN([C@H](CCCNC(N)=O)c2ccc(OC)c(OC)c2)C3=O)CC1 [Cpd 64, {(4R)-4-(3,4-dimethoxy-phenyl)-4-[4-(4-ethyl-piperazin-1-yl)-1-oxo-1,3-dihydro-isoindol-2-yl]-butyl}-urea]",,,143 nM,3660 nM,> 300 nM,,
"CCN1CCN(c2cccc3c2CN([C@H](CCCNCc2ccccc2)c2ccc(OC)c(OC)c2)C3=O)CC1 [Cpd 77, 2-[(1R)-4-benzylamino-1-(3,4-dimethoxy-phenyl)-butyl]-4-(4-ethyl-piperazin-1-yl)-2,3-dihydro-isoindol-1-one]",,,5 nM,47 nM,26 nM,,
"CCN1CCN(c2cccc3c2CN([C@H](CCCn2ccnc2C(C)C)c2ccc(OC)c(OC)c2)C3=O)CC1 [Cpd 104, 2-[(1R)-1-(3,4-dimethoxy-phenyl)-4-(2-isopropyl-imidazol-1-yl)-butyl]-4-(4-ethyl-piperazin-1-yl)-2,3-dihydro-isoindol-1-one]",,,16 nM,206 nM,46 nM,,
"COc1ccc([C@@H](CCCOCc2ccccc2)N2Cc3c(cccc3N3CCNCC3)C2=O)cc1OC [Cpd 41, 2-[(1R)-4-benzyloxy-1-(3,4-dimethoxy-phenyl)-butyl]-4-piperazin-1-yl-2,3-dihydro-isoindol-1-one]",,,22 nM,450 nM,165 nM,,
